Test results taken from patent US5776944A, “7-(4-aminomethyl-3-methyloxyiminopyrroplidin-1-yl)-1-cyclopropyl-6-flu oro-4-oxo-1,4-dihydro-1,8-naphthyridine-3-carboxylic acid and the process for the preparation thereof” (LG Chemical Ltd., priority 1994, dated 1998).
In brackets after ≈: the same amount, converted by molar mass.

Legend:
Type in all cases: cell-based
[1] = system: Escherichia coli TEM3 3455E; assay: microbe, parasite or virus in culture; details: TEM33455E, 18 h, read-out: Minimum Inhibitory Concentration
[2] = system: Klebsiella aerogenes 1082E; assay: In vitro antibacterial activity (MIC, agar dilution), Biological Example 1; details: 18 h, Table 25, read-out: Minimum Inhibitory Concentration
Staphylococcus aureus 77 = assay: as above; details: 18 h; Staphylococcus aureus 77, Table 25; read-out: Minimum Inhibitory Concentration
[3] = system: Acinetobacter calcoaceticus 15473; assay: as above; details: 18 h; Acinetobacter calcoaceticus 15473, Table 25; read-out: Minimum Inhibitory Concentration
[4] = system: Pseudomonas aeruginosa 10145; assay: as above; details: 18 h; Pseudomonas aeruginosa 10145, Table 25; read-out: Minimum Inhibitory Concentration
Escherichia coli 3190Y = assay: as above; details: 18 h, Table 25, read-out: Minimum Inhibitory Concentration
Bacillus subtilis 6633 = assay: as above; details: 18 h; Bacillus subtilis 6633, Table 25; read-out: Minimum Inhibitory Concentration
[5] = system: Citrobacter diversus 2046E; assay: as above; details: Citrobacter koseri, 18 h, Table 25, read-out: Minimum Inhibitory Concentration
[6] = system: Klebsiella aerogenes 1976E; assay: as above; details: 18 h, Table 25, read-out: Minimum Inhibitory Concentration
[7] = system: Staphylococcus aureus giorgio; assay: as above; details: 18 h, Table 25, read-out: Minimum Inhibitory Concentration
Escherichia coli 851E = assay: as above; details: 18 h, Table 25, read-out: Minimum Inhibitory Concentration
Escherichia coli 10536 = assay: as above; details: 18 h; Escherichia coli 10536, Table 25; read-out: Minimum Inhibitory Concentration
[8] = system: Escherichia coli TEM9 2639E; assay: microbe, parasite or virus in culture; details: TEM92639E, 18 h, read-out: Minimum Inhibitory Concentration
[9] = system: Escherichia coli TEM5 3739E; assay: microbe, parasite or virus in culture; details: TEM53739E, 18 h, read-out: Minimum Inhibitory Concentration
[10] = system: Staphylococcus epidermidis 178; assay: In vitro antibacterial activity (MIC, agar dilution), Biological Example 1; details: 18 h; Staphylococcus epidermidis 178, Table 25; read-out: Minimum Inhibitory Concentration
[11] = system: Salmonella typimurium 14028; assay: as above; details: 18 h; Salmonella typimurium 14028, Table 25; read-out: Minimum Inhibitory Concentration
Micrococcus luteus 9341 = assay: as above; details: 18 h; Micrococcus luteus 9341, Table 25; read-out: Minimum Inhibitory Concentration
[12] = system: Staphylococcus aureus 241; assay: as above; details: 18 h; Staphylococcus aureus 241, Table 25; read-out: Minimum Inhibitory Concentration
Enterobacter cloacae P99 = assay: microbe, parasite or virus in culture; details: P99, 18 h, read-out: Minimum Inhibitory Concentration
[13] = system: Staphylococcus aureus 6538p; assay: In vitro antibacterial activity (MIC, agar dilution), Biological Example 1; details: 18 h, Table 25, read-out: Minimum Inhibitory Concentration
[14] = system: Pseudomonas aeruginosa 1912E; assay: as above; details: 18 h; Pseudomonas aeruginosa 1912E, Table 25; read-out: Minimum Inhibitory Concentration
[15] = system: Streptococcus faecalis 29212; assay: as above; details: Enterococcus faecalis, 18 h; Streptococcus faecalis 29212, Table 25; read-out: Minimum Inhibitory Concentration
[16] = system: Staphylococcus epidermidis 887E; assay: as above; details: 18 h, Table 25, read-out: Minimum Inhibitory Concentration
[17] = system: Enterobacter cloacae 1194E; assay: microbe, parasite or virus in culture; details: 18 h, read-out: Minimum Inhibitory Concentration

Compound	MIC [1] [µg/mL]	MIC [2] [µg/mL]	MIC (Staphylococcus aureus 77) [µg/mL]	MIC [3] [µg/mL]	MIC [4] [µg/mL]	MIC (Escherichia coli 3190Y) [µg/mL]	MIC (Bacillus subtilis 6633) [µg/mL]	MIC [5] [µg/mL]	MIC [6] [µg/mL]	MIC [7] [µg/mL]	MIC (Escherichia coli 851E) [µg/mL]	MIC (Escherichia coli 10536) [µg/mL]	MIC [8] [µg/mL]	MIC [9] [µg/mL]	MIC [10] [µg/mL]	MIC [11] [µg/mL]	MIC (Micrococcus luteus 9341) [µg/mL]	MIC [12] [µg/mL]	MIC (Enterobacter cloacae P99) [µg/mL]	MIC [13] [µg/mL]	further results
NCC1CN(c2cc3c(cc2F)c(=O)c(C(=O)O)cn3C2CC2)CC1=NOCc1ccccc1 (stereo not drawn) [Example 12, 7-(4-animomethyl-3-benzyloxyimino-pyrrolidin-1-yl)-1-cyclcopropyl-6-fluoro-1,4-dihydro-4-oxoquinoline-3-carboxylic acid]	0.5 (≈ 1.08 µM)	0.13 (≈ 0.28 µM)	≤ 0.008	0.016 (≈ 0.0344 µM)	0.5 (≈ 1.08 µM)	0.016 (≈ 0.0344 µM)	≤ 0.008	0.13 (≈ 0.28 µM)	1 (≈ 2.15 µM)	≤ 0.008	0.063 (≈ 0.136 µM)	≤ 0.008	0.25 (≈ 0.538 µM)	0.25 (≈ 0.538 µM)	0.5 (≈ 1.08 µM)	0.25 (≈ 0.538 µM)	0.13 (≈ 0.28 µM)	1 (≈ 2.15 µM)	0.063 (≈ 0.136 µM)	≤ 0.008	MIC [14]: 2 µg/mL (≈ 4.31 µM); MIC [15]: 0.031 µg/mL (≈ 0.0667 µM); MIC [16]: ≤ 0.008 µg/mL; MIC [17]: 0.13 µg/mL (≈ 0.28 µM)
NCC1CN(c2c(F)c(N)c3c(=O)c(C(=O)O)cn(C4CC4)c3c2F)CC1=NOCc1ccccc1 (stereo not drawn) [Example 56, 5-amino-7-(4-aminomethyl-3-benzyloxylmino-pyrrolidin-1-yl)-1-cyclopropyl6,8-difluoro-1,4-dihydro-4-oxoquinoline-3-carboxylic acid]	0.5 (≈ 1.01 µM)	0.016 (≈ 0.0322 µM)	≤ 0.008	≤ 0.008	2 (≈ 4.02 µM)	≤ 0.008	≤ 0.008	0.016 (≈ 0.0322 µM)	0.5 (≈ 1.01 µM)	≤ 0.008	≤ 0.008	≤ 0.008	0.063 (≈ 0.127 µM)	0.25 (≈ 0.503 µM)	2 (≈ 4.02 µM)	0.031 (≈ 0.0623 µM)	0.063 (≈ 0.127 µM)	2 (≈ 4.02 µM)	≤ 0.008	≤ 0.008	MIC [14]: 2 µg/mL (≈ 4.02 µM); MIC [15]: 0.016 µg/mL (≈ 0.0322 µM); MIC [16]: ≤ 0.008 µg/mL; MIC [17]: 0.031 µg/mL (≈ 0.0623 µM)
CC(C)ON=C1CN(c2nc3c(cc2F)c(=O)c(C(=O)O)cn3C2CC2)CC1CN (stereo not drawn) [Example 97]	0.13 (≈ 0.311 µM)	0.13 (≈ 0.311 µM)	0.016 (≈ 0.0383 µM)	0.016 (≈ 0.0383 µM)	1 (≈ 2.4 µM)	≤ 0.008	≤ 0.008	0.063 (≈ 0.151 µM)	0.25 (≈ 0.599 µM)	≤ 0.008	0.031 (≈ 0.0743 µM)	≤ 0.008	0.031 (≈ 0.0743 µM)	0.063 (≈ 0.151 µM)	1 (≈ 2.4 µM)	0.13 (≈ 0.311 µM)	0.063 (≈ 0.151 µM)	2 (≈ 4.79 µM)	≤ 0.008	≤ 0.008	MIC [14]: 1 µg/mL (≈ 2.4 µM); MIC [15]: 0.063 µg/mL (≈ 0.151 µM); MIC [16]: ≤ 0.008 µg/mL; MIC [17]: 0.063 µg/mL (≈ 0.151 µM)
CC(C)CON=C1CN(c2nc3c(cc2F)c(=O)c(C(=O)O)cn3C2CC2)CC1CN (stereo not drawn) [Example 102]	0.5 (≈ 1.16 µM)	0.25 (≈ 0.579 µM)	0.016 (≈ 0.0371 µM)	0.063 (≈ 0.146 µM)	2 (≈ 4.64 µM)	≤ 0.008	≤ 0.008	0.13 (≈ 0.301 µM)	0.5 (≈ 1.16 µM)	≤ 0.008	0.063 (≈ 0.146 µM)	≤ 0.008	0.063 (≈ 0.146 µM)	0.25 (≈ 0.579 µM)	1 (≈ 2.32 µM)	0.25 (≈ 0.579 µM)	0.063 (≈ 0.146 µM)	4 (≈ 9.27 µM)	0.031 (≈ 0.0718 µM)	0.016 (≈ 0.0371 µM)	MIC [14]: 2 µg/mL (≈ 4.64 µM); MIC [15]: 0.063 µg/mL (≈ 0.146 µM); MIC [16]: ≤ 0.008 µg/mL; MIC [17]: 0.25 µg/mL (≈ 0.579 µM)
